Patent US6960653B2, “Method and kit for detecting, or determining the quantity of, beta-lactam penicillins” (Randox Laboratories Limited, priority 2001, dated 2005)
Values after ≈ are worked out from the molar mass of the structure shown.

System: IgG fraction of anti-ampicillin antiserum (antibodies raised against the hapten-BSA immunogen of Example 2)
Conditions: for % CR, Assay 1 / % CR, Assay 2 / % CR, Assay 3: % CR = IC50amp/IC50pen x 100; for IC50, Assay 1 / IC50, Assay 2 / IC50, Assay 3: concentration causing 50% displacement of signal, standards in TBST, ampicillin-HRP conjugate; for IC50, Mean Results / % CR, Mean Results: mean of Assays 1-3; for % CR, Mean Results: relative to 100% for ampicillin
Protocol: An aqueous solution of the immunogen of Example 2 was formulated with Freund's Complete Adjuvant (FCA) to form an emulsion consisting of 2 mg/ml immunogen in 50% (v/v) FCA. Three sheep were immunised with this emulsion, 0.25 ml being subcutaneously injected at each of 4 sites in the flank of each animal. Subsequent immunisations (boosts) contained 1 mg/ml immunogen emulsified in 50% (v/v) Freund's Incomplete Adjuvant (FIA) and were administered in the same manner at monthly intervals for 1 year. Blood sampling took place 7 to 14 days after each boost. Each sample was processed to produce antiserum which was further purified by caprylic acid and ammonium sulfate precipitation to yield an immunoglobulin G (IgG) fraction. The IgG fraction was evaluated by competitive ELISA, microtiter plate assay, as described below.
Serial dilutions of the IgG fraction of each antiserum to be tested (prepared in accordance with Example 4) were prepared in 10 mM Tris, pH 8.5. The wells of an enhanced binding 96 well polystyrene microtiter plate were coated with these dilutions (as shown in FIG. 2) by incubation at 37° C. for 2 hours (125 μl/well). The plate was washed 4 times with Tris buffered saline (pH7.4) containing Tween (Trade Mark) 20 (TBST) and tapped dry. […] 50 μl of TBST was added to the remaining (control) wells. […] The plate was incubated at 37° C. for 2 hours. The excess unbound conjugate was removed by washing 6 times over a 10 minute period with TBST. 125 μl of tetramethylbenzidine (TMB) substrate solution was added to each well of the plate, which was then incubated for 15 to 20 minutes, in the dark, at room temperature. The reaction was terminated by addition of 125 μl 0.2M H2SO4 to each well. The absorbance was then measured at 450 nm using a microtiter plate reader.
Standard solutions of benzylpenicillin (penicillin G-PenG), amoxycillin (Amox), cloxacillin (Clox), dicloxacillin (Diclox) and oxacillin (Oxa) were prepared in TBST at 0, 1, 5, 10, 50, 100, 200 and 500 ng/ml.

## CC1(C)SC2C(NC(=O)C(N)c3ccc(O)cc3)C(=O)N2C1C(=O)O (stereo not drawn) [Amox, amoxycillin]
  % CR, Assay 1: 94%
  IC50, Assay 1: 1.8 ng/mL (≈ 4.93 nM)
  % CR, Assay 2: 83%
  IC50, Assay 2: 3.0 ng/mL (≈ 8.21 nM)
  % CR, Assay 3: 83%
  IC50, Assay 3: 3.0 ng/mL (≈ 8.21 nM)
  IC50, Mean Results: 2.6 ng/mL (≈ 7.12 nM)
  % CR, Mean Results: 87%

## CC1(C)S[C@@H]2[C@H](NC(=O)[C@H](N)c3ccccc3)C(=O)N2[C@H]1C(=O)O [Amp, ampicillin]
  % CR, Assay 1: 100%
  IC50, Assay 1: 1.7 ng/mL (≈ 4.87 nM)
  % CR, Assay 2: 100%
  IC50, Assay 2: 2.5 ng/mL (≈ 7.15 nM)
  % CR, Assay 3: 100%
  IC50, Assay 3: 2.5 ng/mL (≈ 7.15 nM)
  IC50, Mean Results: 2.2 ng/mL (≈ 6.3 nM)
  % CR, Mean Results: 100%

## Cc1onc(-c2ccccc2Cl)c1C(=O)N[C@@H]1C(=O)N2[C@@H]1SC(C)(C)[C@@H]2C(=O)O [Cloxa, cloxacillin]
  % CR, Assay 1: 50%
  IC50, Assay 1: 3.4 ng/mL (≈ 7.8 nM)
  % CR, Assay 2: 43%
  IC50, Assay 2: 5.8 ng/mL (≈ 13.3 nM)
  % CR, Assay 3: 43%
  IC50, Assay 3: 5.8 ng/mL (≈ 13.3 nM)
  IC50, Mean Results: 5 ng/mL (≈ 11.5 nM)
  % CR, Mean Results: 45%

## Cc1onc(-c2c(Cl)cccc2Cl)c1C(=O)N[C@@H]1C(=O)N2[C@@H]1SC(C)(C)[C@@H]2C(=O)O [Dicloxa, dicloxacillin]
  % CR, Assay 1: 45%
  IC50, Assay 1: 3.8 ng/mL (≈ 8.08 nM)
  % CR, Assay 2: 42%
  IC50, Assay 2: 6.0 ng/mL (≈ 12.8 nM)
  % CR, Assay 3: 51%
  IC50, Assay 3: 4.9 ng/mL (≈ 10.4 nM)
  IC50, Mean Results: 4.9 ng/mL (≈ 10.4 nM)
  % CR, Mean Results: 46%

## Cc1onc(-c2ccccc2)c1C(=O)N[C@@H]1C(=O)N2[C@@H]1SC(C)(C)[C@@H]2C(=O)O [Oxa, oxacillin]
  % CR, Assay 1: 42.5%
  IC50, Assay 1: 4.0 ng/mL (≈ 9.96 nM)
  % CR, Assay 2: 36%
  IC50, Assay 2: 7.0 ng/mL (≈ 17.4 nM)
  % CR, Assay 3: 38%
  IC50, Assay 3: 6.6 ng/mL (≈ 16.4 nM)
  IC50, Mean Results: 5.9 ng/mL (≈ 14.7 nM)
  % CR, Mean Results: 39%

## CC1(C)S[C@@H]2[C@H](NC(=O)Cc3ccccc3)C(=O)N2[C@H]1C(=O)O [PenG, benzylpenicillin]
  % CR, Assay 1: 63%
  IC50, Assay 1: 2.7 ng/mL (≈ 8.07 nM)
  % CR, Assay 2: 78%
  IC50, Assay 2: 3.2 ng/mL (≈ 9.57 nM)
  % CR, Assay 3: 74%
  IC50, Assay 3: 3.4 ng/mL (≈ 10.2 nM)
  IC50, Mean Results: 3.1 ng/mL (≈ 9.27 nM)
  % CR, Mean Results: 72%
